{"source": "paper PMC4052546", "about": "(Pharmaceuticals, 2011)", "key": {"[1]": {"experiment": "Pharmacokinetics of AS and DHA in rat plasma after single and multiple intravenous AS injections (automated blood sampler, LC-MS/MS);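 on all read-outs here: blood drawn through a jugular vein catheter by an automated sampling system, plasma drug levels measured by LC-MS/MS with positive electrospray ionization against standard curves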", "type": "in vivo, Sprague-Dawley rats", "conditions": "for AUC0–3 h / Cmin / Degree of Fluctuation = 100% × (Cmax − Cmin)/Cav / Cmax / MRT / Tmax / AUC(0-t) / AUC / half-life / average plasma concentration over 0–72 h (Cav = AUC0–72 h/72): 20 mg/kg i.v. daily for 3 days, male rats; for Cmax / MRT / Tmax / AUC(0-t) / AUC / half-life / average plasma concentration over 0–72 h (Cav = AUC0–72 h/72): male, Sprague-Dawley, rat, plasma, iv, 20 mg/kg; for AUC(0-t): read-out: AUC0–3 h; for AUC: read-out: AUCinfininty", "method": "The Culex ABS is a blood sampling and metabolism monitoring machine, which is controlled by its own internal computer. We were successful in evaluating PK for long-term periods by using this system. After jugular vein cannulation, study animals were individually placed in the system, which allowed for a micro-pump to infuse heparinized-saline (10 unit heparin/mL saline) at a rate of 1-2 μL/min to prevent coagulation within the catheter. Culex samples were obtained with precise blood volumes from the study animals and the total volume taken was less than 6% per day and 14% during the entire study period. Blood samples were maintained at 3 °C using Culex's temperature-controlled fractional collector. Plasma was separated from the blood samples and processed for drug extraction.\n(§1) Three samples were collected during each phase of absorption, distribution, or elimination for full PK analysis on the first and last dosing days following intravenous bonus injection. Additionally, trough levels (pre-dose) samples were collected in between each dose to follow drug accumulation and a series PK approach (18 samples per animal) was used. Thus, each animal was dosed and plasma samples were obtained for up to three days. A total of 18 (0, 5, 15, 30, 45 min, 1, 2, 3, 6, 24.25, 48.167, 48.25, 48.5, 48.75, 49, 50, 51, and 54 h) samples were collected into cooled vials. 50 μL of blood per sample was collected pre-dosing and after dosing and 100 μL per sample was taken from 0.08 h to 56 h after dosing. During collection, blood samples were added into the vials, which contained dried heparin (50 units) on the bottom of each vial. Thus, a total blood volume of 1.75 mL was obtained from each rat during the three day treatment period (0.85 mL of blood on day 0, 0.1 mL on day 1, and 0.9 mL on day 2), which is 9.3% of the animals total blood volume. Subjects for replicated crossover design were followed FDA recommendation [22] with a 2 week wash out period. During wash-out period, if the catheter was blocked up by any reasons the jugular vein tubes were infused or replaced.\nThe samples were vortexed vigorously (set at 10 or max setting) for 8–10 sec followed by a 10,000 × g centrifugation at 4 °C for 10 min. Aliquots (approximately 250 μL ea) of the undisturbed supernatants were transferred into a 96-well plate for LC-MS/MS analyses. […] Drugs were chromatographically separated using an acetonitrile/ammonium acetate gradient through a Waters XTerra C18 column (2.1 × 50 mm, 3.5 μm particle size) and corresponding pre-column. Quantification was done using the most abundant daughter ions following positive electrospray ionization. Chromatograms were analyzed using Xcalibur mass spectrometry software. The responses-concentrations standard curves were fitted and weighted.\nThe area under the curve (AUC) was determined by the linear trapezoidal rule with extrapolation to infinity based on the concentration of the last time point divided by the terminal rate constant. The bioequivalence (BE) evaluation of the two formulations were analyzed by using BE software (WinNonlin 5.2, Pharsight Co. Mountain View, CA. USA) in rats for a NDA application."}, "[2]": {"conditions": "rat, in vivo", "from_the_text": "An automated blood sampler (Culex ABS, Bioanalytical Systems, Inc. West Lafayette, IN) was used for rat blood sample collection.\nas §1\nThe area under the curve (AUC) was determined by the linear trapezoidal rule with extrapolation to infinity based on the concentration of the last time point divided by the terminal rate constant."}, "[3]": {"conditions": "more active; cited from earlier work"}, "[4]": {"conditions": "cited from earlier work"}, "[5]": {"conditions": "Chinese formulation (AS/NaHCO3), Period 1, Day 3"}, "[6]": {"conditions": "Chinese formulation (AS/NaHCO3), Period 2, Day 3"}, "[7]": {"conditions": "WRAIR formulation (AS/0.3M PBS Buffer), Period 1, Day 3"}, "[8]": {"conditions": "WRAIR formulation (AS/0.3M PBS Buffer), Period 2, Day 3"}, "[9]": {"conditions": "Chinese formulation (AS/NaHCO3), Period 1, Day 1"}, "[10]": {"conditions": "Chinese formulation (AS/NaHCO3), Period 2, Day 1"}, "[11]": {"conditions": "WRAIR formulation (AS/0.3M PBS Buffer), Period 1, Day 1"}, "[12]": {"conditions": "WRAIR formulation (AS/0.3M PBS Buffer), Period 2, Day 1"}, "[13]": {"conditions": "male, Sprague-Dawley, iv, 20 mg/kg, 1 day"}}, "note": "Several values for one entry are separate records, joined by “and”; a condition that tells them apart may be missing. Equal entries are not always repeated. Where two headings read alike, the source gives them in different places."}
{"molecule": "C[C@H]1[C@@H](O)O[C@@H]2O[C@@]3(C)CC[C@H]4[C@H](C)CC[C@@H]1[C@@]24OO3", "note": "[DHA, dihydroartemisinin]", "values": [{"measurement": "AUC0–3 h", "setting": "[1]; [5]", "result": "990.8 ± 224.7", "unit": "ng·h/mL"}, {"measurement": "Cmin", "setting": "[1]; [5]", "result": "2.96 ± 2.31", "unit": "ng/mL"}, {"measurement": "Degree of Fluctuation = 100% × (Cmax − Cmin)/Cav", "setting": "[1]; [5]", "result": "860% and 860.1 ± 121.1%"}, {"measurement": "AUC0–3 h", "setting": "[1]; [6]", "result": "905.2 ± 188.7", "unit": "ng·h/mL"}, {"measurement": "Cmin", "setting": "[1]; [6]", "result": "4.52 ± 2.25", "unit": "ng/mL"}, {"measurement": "Degree of Fluctuation = 100% × (Cmax − Cmin)/Cav", "setting": "[1]; [6]", "result": "844 ± 64", "unit": "%"}, {"measurement": "time at which Cmax was measured", "setting": "[1]; Chinese formulation, 20 mg/kg i.v., rats, period 1, day 1", "result": 15, "unit": "min"}, {"measurement": "time at which Cmax was measured", "setting": "[1]; Chinese formulation, 20 mg/kg i.v., rats, period 2, day 1", "result": 15, "unit": "min"}, {"measurement": "time at which Cmax was observed", "setting": "[1]; Chinese formulation, 20 mg/kg i.v., rats, period 2, day 3", "result": 15, "unit": "min"}, {"measurement": "Cmin", "setting": "[1]; [7]", "result": "6.59 ± 3.06", "unit": "ng/mL"}, {"measurement": "Cmin", "setting": "[1]; [8]", "result": "5.38 ± 3.77", "unit": "ng/mL"}, {"measurement": "time at which Cmax was measured", "setting": "[1]; WRAIR formulation, 20 mg/kg i.v., rats, period 1, day 1", "result": 15, "unit": "min"}, {"measurement": "Cmax", "setting": "[1]; [9]", "result": 3360, "unit": "ng/mL"}, {"measurement": "MRT", "setting": "[1]; [9]", "result": "22.8 ± 7.8", "unit": "min"}, {"measurement": "Tmax", "setting": "[1]; [9]", "result": 15, "unit": "min"}, {"measurement": "AUC(0-t)", "setting": "[1]; [9]", "result": 1570, "unit": "ng·h/mL"}, {"measurement": "AUC", "setting": "[1]; [9]", "result": "1570 ± 350", "unit": "ng·h/mL"}, {"measurement": "half-life", "setting": "[1]; Chinese formulation (AS/NaHCO3), Period 1, Day 1, read-out: t1/2 distribution (converted)", "result": "7.2 ± 1.2", "unit": "min"}, {"measurement": "half-life", "setting": "[1]; Chinese formulation (AS/NaHCO3), Period 1, Day 1, read-out: t1/2 elimination (converted)", "result": "45 ± 6", "unit": "min"}, {"measurement": "Cmax", "setting": "[1]; [5]", "result": 2780, "unit": "ng/mL"}, {"measurement": "MRT", "setting": "[1]; [5]", "result": "21 ± 3.6", "unit": "min"}, {"measurement": "Tmax", "setting": "[1]; [5]", "result": "10.2 ± 5.4", "unit": "min"}, {"measurement": "average plasma concentration over 0–72 h (Cav = AUC0–72 h/72)", "setting": "[1]; [5]", "result": 330, "unit": "ng·h/mL"}, {"measurement": "AUC(0-t)", "setting": "[1]; [5]", "result": 991, "unit": "ng·h/mL"}, {"measurement": "AUC", "setting": "[1]; [5]", "result": "994 ± 225", "unit": "ng·h/mL"}, {"measurement": "half-life", "setting": "[1]; Chinese formulation (AS/NaHCO3), Period 1, Day 3, read-out: t1/2 distribution (converted)", "result": "5.4 ± 0.6", "unit": "min"}, {"measurement": "half-life", "setting": "[1]; Chinese formulation (AS/NaHCO3), Period 1, Day 3, read-out: t1/2 elimination (converted)", "result": "40.8 ± 9", "unit": "min"}, {"measurement": "Cmax", "setting": "[1]; [10]", "result": 2690, "unit": "ng/mL"}, {"measurement": "MRT", "setting": "[1]; [10]", "result": "27.6 ± 8.4", "unit": "min"}, {"measurement": "Tmax", "setting": "[1]; [10]", "result": 15, "unit": "min"}, {"measurement": "AUC(0-t)", "setting": "[1]; [10]", "result": 1220, "unit": "ng·h/mL"}, {"measurement": "AUC", "setting": "[1]; [10]", "result": "1230 ± 266", "unit": "ng·h/mL"}, {"measurement": "half-life", "setting": "[1]; Chinese formulation (AS/NaHCO3), Period 2, Day 1, read-out: t1/2 distribution (converted)", "result": "7.2 ± 1.2", "unit": "min"}, {"measurement": "half-life", "setting": "[1]; Chinese formulation (AS/NaHCO3), Period 2, Day 1, read-out: t1/2 elimination (converted)", "result": "43.8 ± 10.2", "unit": "min"}, {"measurement": "Cmax", "setting": "[1]; [6]", "result": 2450, "unit": "ng/mL"}, {"measurement": "MRT", "setting": "[1]; [6]", "result": "22.8 ± 1.2", "unit": "min"}, {"measurement": "Tmax", "setting": "[1]; [6]", "result": 15, "unit": "min"}, {"measurement": "AUC(0-t)", "setting": "[1]; [6]", "result": 905, "unit": "ng·h/mL"}, {"measurement": "AUC", "setting": "[1]; [6]", "result": "910 ± 188", "unit": "ng·h/mL"}, {"measurement": "half-life", "setting": "[1]; Chinese formulation (AS/NaHCO3), Period 2, Day 3, read-out: t1/2 distribution (converted)", "result": "4.8 ± 0.6", "unit": "min"}, {"measurement": "half-life", "setting": "[1]; Chinese formulation (AS/NaHCO3), Period 2, Day 3, read-out: t1/2 elimination (converted)", "result": "43.2 ± 7.2", "unit": "min"}, {"measurement": "Cmax", "setting": "[1]; [11]", "result": 3150, "unit": "ng/mL"}, {"measurement": "MRT", "setting": "[1]; [11]", "result": "23.4 ± 4.8", "unit": "min"}, {"measurement": "Tmax", "setting": "[1]; [11]", "result": 15, "unit": "min"}, {"measurement": "AUC(0-t)", "setting": "[1]; [11]", "result": 1460, "unit": "ng·h/mL"}, {"measurement": "AUC", "setting": "[1]; [11]", "result": "1460 ± 211", "unit": "ng·h/mL"}, {"measurement": "half-life", "setting": "[1]; WRAIR formulation (AS/0.3M PBS Buffer), Period 1, Day 1, read-out: t1/2 distribution (converted)", "result": "7.2 ± 0.6", "unit": "min"}, {"measurement": "half-life", "setting": "[1]; WRAIR formulation (AS/0.3M PBS Buffer), Period 1, Day 1, read-out: t1/2 elimination (converted)", "result": "58.8 ± 8.4", "unit": "min"}, {"measurement": "Cmax", "setting": "[1]; [7]", "result": 2810, "unit": "ng/mL"}, {"measurement": "MRT", "setting": "[1]; [7]", "result": "20.4 ± 6.6", "unit": "min"}, {"measurement": "Tmax", "setting": "[1]; [7]", "result": 15, "unit": "min"}, {"measurement": "average plasma concentration over 0–72 h (Cav = AUC0–72 h/72)", "setting": "[1]; [7]", "result": 367, "unit": "ng·h/mL"}, {"measurement": "AUC(0-t)", "setting": "[1]; [7]", "result": 1100, "unit": "ng·h/mL"}, {"measurement": "AUC", "setting": "[1]; [7]", "result": "1110 ± 174", "unit": "ng·h/mL"}, {"measurement": "half-life", "setting": "[1]; WRAIR formulation (AS/0.3M PBS Buffer), Period 1, Day 3, read-out: t1/2 distribution (converted)", "result": "5.4 ± 0.6", "unit": "min"}, {"measurement": "half-life", "setting": "[1]; WRAIR formulation (AS/0.3M PBS Buffer), Period 1, Day 3, read-out: t1/2 elimination (converted)", "result": "54 ± 7.2", "unit": "min"}, {"measurement": "Cmax", "setting": "[1]; [12]", "result": 3520, "unit": "ng/mL"}, {"measurement": "MRT", "setting": "[1]; [12]", "result": "24 ± 2.4", "unit": "min"}, {"measurement": "Tmax", "setting": "[1]; [12]", "result": 15, "unit": "min"}, {"measurement": "AUC(0-t)", "setting": "[1]; [12]", "result": 1510, "unit": "ng·h/mL"}, {"measurement": "AUC", "setting": "[1]; [12]", "result": "1510 ± 293", "unit": "ng·h/mL"}, {"measurement": "half-life", "setting": "[1]; WRAIR formulation (AS/0.3M PBS Buffer), Period 2, Day 1, read-out: t1/2 distribution (converted)", "result": "8.4 ± 0.6", "unit": "min"}, {"measurement": "half-life", "setting": "[1]; WRAIR formulation (AS/0.3M PBS Buffer), Period 2, Day 1, read-out: t1/2 elimination (converted)", "result": "54.6 ± 4.2", "unit": "min"}, {"measurement": "Cmax", "setting": "[1]; [8]", "result": 3120, "unit": "ng/mL"}, {"measurement": "MRT", "setting": "[1]; [8]", "result": "23.4 ± 1.8", "unit": "min"}, {"measurement": "Tmax", "setting": "[1]; [8]", "result": 15, "unit": "min"}, {"measurement": "AUC(0-t)", "setting": "[1]; [8]", "result": 1040, "unit": "ng·h/mL"}, {"measurement": "AUC", "setting": "[1]; [8]", "result": "1050 ± 160", "unit": "ng·h/mL"}, {"measurement": "half-life", "setting": "[1]; WRAIR formulation (AS/0.3M PBS Buffer), Period 2, Day 3, read-out: t1/2 distribution (converted)", "result": "5.4 ± 8.4", "unit": "min"}, {"measurement": "half-life", "setting": "[1]; WRAIR formulation (AS/0.3M PBS Buffer), Period 2, Day 3, read-out: t1/2 elimination (converted)", "result": "52.8 ± 8.4", "unit": "min"}, {"measurement": "90% CI for the difference between the two i.v. formulations, AUC1–3D", "setting": "[2]; Sprague-Dawley, iv", "result": "79.11–120.89%"}, {"measurement": "90% CI of the difference between the two intravenous formulations, AUCD3", "setting": "[2]; Sprague-Dawley, iv, 3 day", "result": "71.32–128.67%"}, {"measurement": "90% CI for T/R, Lower, AUCD1", "setting": "[2]; [13]", "result": 82.04, "unit": "%"}, {"measurement": "90% CI for T/R, Upper, AUCD1", "setting": "[2]; [13]", "result": 117.96, "unit": "%"}, {"measurement": "BE (bioequivalence), AUCD1", "setting": "[2]", "result": "Yes"}, {"measurement": "BE (bioequivalence), Cmax D1", "setting": "[2]", "result": "No"}, {"measurement": "90% CI between the two intravenous formulations, AUC0–3 h", "setting": "[2]; iv", "result": "82.04–117.96%"}, {"measurement": "activity compared with other artemisinin derivatives", "setting": "[3]", "result": "3-5 fold"}, {"measurement": "elimination half-life (t1/2)", "setting": "[4]", "result": "40 to 60", "unit": "min"}]}
